Measurements from patent US20140288113A1, “Extended Release Compositions Comprising Hydrocodone And Acetaminophen For Rapid Onset And Prolonged Analgesia That May Be Administered Without Regard To Food” (MALLINCKRODT LLC, priority 2013, published 2014).

Assays:
hepatic GSH [1] = test: Hepatic glutathione depletion after acetaminophen in Swiss mice (Brzeznicka and Piotrowski 1989); type: in vivo
From the text: The bioequivalence level is 95%.

hepatic GSH [2] = settings: mice, cited from earlier work

In the case of `CC(=O)Nc1ccc(O)cc1` [acetaminophen], the “safety exposure ratio compared with human levels (1.3 g/day, 70 kg)” value (hepatic GSH [1]; Swiss mice 400 mg/kg) is listed as 22 fold, the “safety exposure ratio compared with human levels (1.3 g/day, 70 kg)” value (hepatic GSH [1]; Swiss mice 600 mg/kg) is listed as 32 fold and the “time after administration at which circulating hepatic GSH changes began” value (hepatic GSH [2]; 100 mg/kg to 600 mg/kg) is listed as at most 15 min. The “time after injection of minimum GSH level” value (hepatic GSH [2]; all dose groups) was 2 h.
